From PubChem BioAssay AID206 (DTP/NCI, 2004)
Where “and” joins values, the source holds several entries; their conditions need not be identical. Equal entries are not always repeated. Inconclusive results are not listed.

Test system: nude mice, HT29 intrarenal xenograft, tumor weight T/C
Assay: NCI In Vivo Anticancer Drug Screen. Data for tumor model HT29;CX-1 Human Adenocarcinoma (MER+) (intrarenal inoculation) in NU/NU Swiss (nude) mice
Settings: endpoint: mean tumor weight change, higher = larger tumour
Outline: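 T/C = treated-group value ÷ vehicle-group value, using tumor size or survival.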

[1] = dose: 100.0 mg/kg/injection, schedule: Q04DX004 (sc), vehicle: saline with Tween-80
[2] = dose: 200.0 mg/kg/injection, schedule: Q04DX004 (sc), vehicle: saline with Tween-80
[3] = dose: 400.0 mg/kg/injection, schedule: Q04DX004 (sc), vehicle: saline with Tween-80
[4] = dose: 2.0 mg/kg/injection, schedule: Q01DX010 (sc), vehicle: saline
[5] = dose: 1.0 mg/kg/injection, schedule: Q01DX010 (sc), vehicle: saline
[6] = dose: 50.0 mg/kg/injection, schedule: Q04DX004 (sc), vehicle: saline with Tween-80

CC(C)NC(=O)OCc1c(COC(=O)NC(C)C)c(-c2ccc(Cl)c(Cl)c2)n2c1CCC2
T/C (dose: 25.0 mg/kg/injection, schedule: Q01DX010 (sc), vehicle: distilled water + Tween-80): 107 % of control | T/C (dose: 50.0 mg/kg/injection, schedule: Q01DX010 (sc), vehicle: distilled water + Tween-80): 15 % of control | T/C (dose: 200.0 mg/kg/injection, schedule: Q01DX010 (sc), vehicle: distilled water + Tween-80): 60 % of control and 78 % of control | T/C (dose: 800.0 mg/kg/injection, schedule: Q01DX010 (sc), vehicle: distilled water + Tween-80): 44 % of control

CCCCOCN(COCCCC)C(C)Cc1ccccc1 (centres undefined)
T/C [1]: 110 % of control | T/C [2]: 178 % of control | T/C [3]: 98 % of control | T/C (dose: 800.0 mg/kg/injection, schedule: Q04DX004 (sc), vehicle: saline with Tween-80): 97 % of control

O=C1CC2(C(=O)N1CN1CCCCC1)c1ccccc1-c1ccccc12
T/C (dose: 100.0 mg/kg/injection, schedule: Q04DX004 (sc), vehicle: Klucel (hydroxypropylcellulose) (HPC)): 43 % of control | T/C (dose: 400.0 mg/kg/injection, schedule: Q04DX004 (sc), vehicle: Klucel (hydroxypropylcellulose) (HPC)): 69 % of control | T/C (dose: 800.0 mg/kg/injection, schedule: Q04DX004 (sc), vehicle: Klucel (hydroxypropylcellulose) (HPC)): 70 % of control

CO[C@H](C(=O)[C@@H](O)[C@@H](C)O)[C@@H]1Cc2cc3cc(OC4CC(OC5CC(O)C(O)C(C)O5)C(O)C(C)O4)c(C)c(O)c3c(O)c2C(=O)[C@H]1OC1CC(OC2CC(OC3CC(C)(O)C(O)C(C)O3)C(O)C(C)O2)C(O)C(C)O1 (some centres undefined)
T/C (dose: 0.25 mg/kg/injection, schedule: Q04DX004 (sc), vehicle: saline): 87 % of control | T/C (dose: 0.5 mg/kg/injection, schedule: Q04DX004 (sc), vehicle: saline): 53 % of control | T/C (dose: 1.0 mg/kg/injection, schedule: Q04DX004 (sc), vehicle: saline): 54 % of control | T/C [4]: -80 % of control | T/C (dose: 2.0 mg/kg/injection, schedule: Q04DX004 (sc), vehicle: saline): 61 % of control

CSc1ncnc2c1ncn2C1OC(CO)C(O)C1O (centres undefined)
T/C (dose: 37.5 mg/kg/injection, schedule: Q04DX004 (sc), vehicle: saline + alcohol): 74 % of control and 77 % of control and 80 % of control | T/C (dose: 125.0 mg/kg/injection, schedule: Q04DX004 (sc), vehicle: saline + alcohol): 154 % of control | T/C (dose: 175.0 mg/kg/injection, schedule: Q04DX004 (sc), vehicle: saline + alcohol): 65 % of control

NC(=O)c1cn(C2OC(CO)C(O)C2O)c2ncnc(N)c12 (centres undefined)
T/C [5]: 115 % of control | T/C [4]: 94 % of control

NCCCC(N)(C(=O)O)C(F)F (centres undefined)
T/C (dose: 300.0 mg/kg/injection, schedule: Q04DX004 (sc), vehicle: distilled water + alcohol): 240 % of control | T/C (dose: 600.0 mg/kg/injection, schedule: Q04DX004 (sc), vehicle: distilled water + alcohol): 169 % of control | T/C (dose: 1200.0 mg/kg/injection, schedule: Q04DX004 (sc), vehicle: distilled water + alcohol): 75 % of control

CCNC(=O)OCc1c(COC(=O)NCC)c(-c2ccc(Cl)c(Cl)c2)n2c1CCC2
T/C (dose: 75.0 mg/kg/injection, schedule: Q04DX004 (sc), vehicle: saline with Tween-80): 5 % of control and 19 % of control | T/C (dose: 150.0 mg/kg/injection, schedule: Q04DX004 (sc), vehicle: saline with Tween-80): 66 % of control

CC1OC1C(=O)C1(O)C(C)C(O)C23OC2(C(O)c2c(O)cccc2C3=O)C1O (centres undefined)
T/C (dose: 12.0 mg/kg/injection, schedule: Q04DX004 (sc), vehicle: Klucel (hydroxypropylcellulose) (HPC)): 172 % of control | T/C (dose: 24.0 mg/kg/injection, schedule: Q04DX004 (sc), vehicle: Klucel (hydroxypropylcellulose) (HPC)): 99 % of control | T/C (dose: 48.0 mg/kg/injection, schedule: Q04DX004 (sc), vehicle: Klucel (hydroxypropylcellulose) (HPC)): 92 % of control

Cc1ccc(S(=O)(=O)NC(=S)S)cc1
T/C (dose: 100.0 mg/kg/injection, schedule: Q01DX010 (sc), vehicle: saline with Tween-80): 110 % of control | T/C (dose: 200.0 mg/kg/injection, schedule: Q01DX010 (sc), vehicle: saline with Tween-80): 191 % of control

C[Si](C)(C)O/C=C1\CCCCC1=O
T/C [6]: 163 % of control | T/C [1]: 92 % of control | T/C [2]: 123 % of control | T/C [3]: 65 % of control

CC1(C)OC(=O)N(CO)C1=O
T/C (dose: 25.0 mg/kg/injection, schedule: Q01DX010 (sc), vehicle: saline): 95 % of control | T/C (dose: 50.0 mg/kg/injection, schedule: Q01DX010 (sc), vehicle: saline): 118 % of control | T/C (dose: 200.0 mg/kg/injection, schedule: Q01DX010 (sc), vehicle: saline): 194 % of control

CN=C(N)N/N=C(\c1ccccc1)c1ccc(Br)cc1
T/C [6]: 90 % of control and 92 % of control and 104 % of control

Cc1c2ccccc2cc2cccc[n+]12
T/C (dose: 7.5 mg/kg/injection, schedule: Q04DX004 (sc), vehicle: saline): 116 % of control | T/C (dose: 15.0 mg/kg/injection, schedule: Q04DX004 (sc), vehicle: saline): 63 % of control | T/C (dose: 30.0 mg/kg/injection, schedule: Q04DX004 (sc), vehicle: saline): 93 % of control

O=c1[nH]c(=O)n([C@H]2CCCO2)cc1F
T/C (dose: 100.0 mg/kg/injection, schedule: Q01DX010 (sc), vehicle: Klucel (hydroxypropylcellulose) (HPC)): 55 % of control | T/C (dose: 200.0 mg/kg/injection, schedule: Q01DX010 (sc), vehicle: Klucel (hydroxypropylcellulose) (HPC)): 103 % of control

CNc1nc2c(N)ncnc2n1C1OC(CO)C(O)C1O (centres undefined)
T/C (dose: 25.0 mg/kg/injection, schedule: Q04DX004 (sc), vehicle: saline): 87 % of control

CC(C)(C)c1ccc(CN2CCN(C(c3ccccc3)c3ccc(Cl)cc3)CC2)cc1 (centres undefined)
T/C (dose: 75.0 mg/kg/injection, schedule: Q04DX004 (sc), vehicle: Klucel (hydroxypropylcellulose) (HPC)): 78 % of control | T/C (dose: 150.0 mg/kg/injection, schedule: Q04DX004 (sc), vehicle: Klucel (hydroxypropylcellulose) (HPC)): 74 % of control | T/C (dose: 300.0 mg/kg/injection, schedule: Q04DX004 (sc), vehicle: Klucel (hydroxypropylcellulose) (HPC)): 88 % of control | T/C (dose: 600.0 mg/kg/injection, schedule: Q04DX004 (sc), vehicle: Klucel (hydroxypropylcellulose) (HPC)): 93 % of control

Cc1cc(N(CC(C)Br)CC(C)Br)ccc1N=Nc1ccccc1C(=O)O (centres undefined)
T/C (dose: 3.13 mg/kg/injection, schedule: Q01DX010 (sc), vehicle: saline with Tween-80): 69 % of control | T/C (dose: 6.25 mg/kg/injection, schedule: Q01DX010 (sc), vehicle: saline with Tween-80): 18 % of control | T/C (dose: 12.5 mg/kg/injection, schedule: Q01DX010 (sc), vehicle: saline with Tween-80): 14 % of control

CSc1ccc2c(c1)C(N1CCN(C)CC1)Cc1ccccc1S2 (centres undefined)
T/C (dose: 12.5 mg/kg/injection, schedule: Q04DX004 (sc), vehicle: saline with Tween-80): 80 % of control | T/C (dose: 25.0 mg/kg/injection, schedule: Q04DX004 (sc), vehicle: saline with Tween-80): 98 % of control | T/C [6]: 124 % of control

COc1ccc2c(c1)CCn1c(C)c(COC(=O)NC(C)C)c(COC(=O)NC(C)C)c1-2
T/C (dose: 300.0 mg/kg/injection, schedule: Q04DX004 (sc), vehicle: distilled water + Tween-80): 165 % of control | T/C (dose: 600.0 mg/kg/injection, schedule: Q04DX004 (sc), vehicle: distilled water + Tween-80): 191 % of control

CC[C@]1(O)C[C@H]2CN(CCc3c([nH]c4ccccc34)[C@@](C(=O)OC)(c3cc4c(cc3OC)N(C)[C@H]3[C@@](O)(C(=O)OC)[C@H](OC(C)=O)[C@]5(CC)C=CCN6CC[C@]43[C@@H]65)C2)C1
T/C (dose: 0.25 mg/kg/injection, schedule: Q01DX010 (sc), vehicle: saline): 76 % of control | T/C (dose: 0.5 mg/kg/injection, schedule: Q01DX010 (sc), vehicle: saline): 88 % of control | T/C [5]: 60 % of control

O=CC(S)CO (centres undefined)
T/C (dose: 100.0 mg/kg/injection, schedule: Q04DX004 (sc), vehicle: suspension in saline): 92 % of control | T/C (dose: 200.0 mg/kg/injection, schedule: Q04DX004 (sc), vehicle: suspension in saline): 69 % of control | T/C (dose: 400.0 mg/kg/injection, schedule: Q04DX004 (sc), vehicle: suspension in saline): 101 % of control | T/C (dose: 800.0 mg/kg/injection, schedule: Q04DX004 (sc), vehicle: suspension in saline): 72 % of control

N/C=N/O
T/C (dose: 400.0 mg/kg/injection, schedule: Q01DX010 (sc), vehicle: saline): 111 % of control

CCCCCCCCCCCCCCCCS(=O)CC(O)COC(=O)c1ccc(C(=O)OCC(O)CS(=O)CCCCCCCCCCCCCCCC)cc1 (centres undefined)
T/C (dose: 50.0 mg/kg/injection, schedule: Q01DX010 (sc), vehicle: saline + Tween-80 + alcohol): 114 % of control | T/C (dose: 400.0 mg/kg/injection, schedule: Q01DX010 (sc), vehicle: saline + Tween-80 + alcohol): 93 % of control and 110 % of control

COC1/C=C/O[C@@]2(C)Oc3c(C)c(O)c4c(O)c(cc(O)c4c3C2=O)NC(=O)/C(C)=C\C=C\[C@H](C)C(O)[C@@H](C)[C@@H](O)[C@@H](C)[C@H](OC(C)=O)[C@@H]1C (some centres undefined)
T/C (dose: 150.0 mg/kg/injection, schedule: Q04DX004 (sc), vehicle: suspension in saline): 72 % of control | T/C (dose: 300.0 mg/kg/injection, schedule: Q04DX004 (sc), vehicle: suspension in saline): 69 % of control
